Source: US20130324493A1, “COMPOSITIONS COMPRISING NINGNANMYCIN AND USES THEREFOR” (North Carolina State University, priority 2012, published 2013)
Values after ≈ are worked out from the molar mass of the structure shown. Where two headings read alike, the source gives them in different places.

Assays:
Colletotrichum cereale = test: In vitro sensitivity assay (radial growth on fungicide-amended PDA); assay type: cell-based
Method: (§1) Three isolates of S. homoeocarpa and two isolates of C. cereale were selected to evaluate ningnanmycin (Ningnanmycin 10WP, Deqiang Biological Co., LTD. Harbin, Helongjiang, China) in vitro activities using 5 three-fold dilutions from 0.81 to 0.01 μg a.i./ml. […] Based on preliminary experiments, five dilutions of triticonazole were used, ranging from 0.81 to 0.01 μg a.i/ml for isolates of S. homoeocarpa and from 6.25 to 0.01 μg a.i./ml for isolates of C. cereale. All isolates were prepared for long-term storage on pieces of dried filter paper maintained at −80° C. Filter paper sections containing each isolate were removed from −80° C. storage and placed on PDA amended with 0.05 μg/ml each of chloramphenicol, streptomycin, and tetracycline (PDA+++). After 3 days, mycelium-containing plugs (1×1 cm) were transferred to water agar for another 2 days. Then, water agar plugs (0.45 cm diameter) were cut from the periphery of the colony using a cork borer and placed on the center of Petri dishes containing non-amended PDA and PDA amended with the serial concentrations of each fungicide with three replicates per isolate. Radial growth was measured after three days (72 h) incubation at room temperature for isolates of S. homoeocarpa and seven days for isolates of C. cereale. Relative Growth (RG) was calculated by dividing colony diameter on amended PDA by that on the non-amended PDA. EC50 values were then calculated using the method described by Secor et al. (Fungicide resistance assays for fungal plant pathogens. Methods Mol Biol. 835:385-392, 2012). The in vitro sensitivity assay repeated twice and EC50 value of each isolates was determined as the mean of EC50 values from two assays.

Sclerotinia homoeocarpa = test: as above; assay type: cell-based; details: Clarireedia homoeocarpa
Method: as §1

anthracnose (C. cereale) = test: Field efficacy test, control of anthracnose on putting green turf; assay type: in vivo, 'Dominant Plus' creeping bentgrass; details: for Turf quality: 1-to-9 scale (9 = best), anthracnose trial; for anthracnose control (in words): 2010, August
Xanthomonas pruni = test: Preliminary in vitro antibacterial study; assay type: cell-based; details: ningnanmycin at 100 ug/ml
X. translucent = test: Preliminary in vitro antibacterial study; assay type: cell-based
Pantoea ananatis = test: Preliminary in vitro antibacterial study; assay type: cell-based; details: ningnanmycin at 100 ug/ml
Acidovorax aveane = test: Preliminary in vitro antibacterial study; assay type: cell-based; details: ningnanmycin at 100 ug/ml
P. aphanidermatum = test: In vitro activity on turfgrass strains; assay type: cell-based, Pythium aphanidermatum
[1] = test system: Rhizoctonia solani (AG2-2IIIB); test: In vitro activity; assay type: cell-based; details: AG2-2IIIB causing brown patch on creeping bentgrass
[2] = test system: brown patch (Rhizoctonia solani AG2-2IIIB); test: Preliminary field experiment, brown patch; assay type: in vivo; details: creeping bentgrass
[3] = test system: Ophiosphaerella herpotricha (spring dead spot); test: Preliminary in vitro experiment; assay type: cell-based
[4] = test system: Magnaporthe poae (summer patch); assay type: cell-based; details: preliminary experiment
[5] = test system: M. griesea (turf gray leaf pot); test: Preliminary in vitro experiment; assay type: cell-based
creeping bentgrass = details: field plots treated with ningnanmycin, 2010 and 2011
Fish = details: species not given; cited from earlier work
honey bee = details: cited from earlier work
mammals = details: Hu et al. 1997; cited from earlier work
earthworms = details: cited from earlier work
rat [6] = details: cited from earlier work
rat [7] = details: cited from earlier work; remark: listed apart in the source
rabbit [8] = details: cited from earlier work
rabbit [9] = details: cited from earlier work; remark: listed apart in the source
guinea pig = details: cited from earlier work
green algae = details: green algae, 72 h; cited from earlier work

## CNCC(=O)NC(CO)C(=O)NC1C(C(N)=O)OC(n2ccc(N)nc2=O)C(O)C1O [ningnanmycin, 4-sarcosinamido-L-serinamido-4-deoxy-β-D-pyranoglucuronamido]
Colletotrichum cereale; 168 h, isolate ABR1, radial growth after seven days, mean of two assays
  EC50: 0.36 µg/mL (≈ 0.812 µM)
Colletotrichum cereale; 168 h, isolate ABR12, radial growth after seven days, mean of two assays
  EC50: 0.24 µg/mL (≈ 0.541 µM)
Colletotrichum cereale; read-out: mean EC50, mean of two isolates
  EC50: 0.3 µg/mL (≈ 0.677 µM)
Sclerotinia homoeocarpa; 72 h, isolate 761SHME, radial growth after 72 h, mean of two assays
  EC50: 0.02 µg/mL (≈ 0.0451 µM)
Sclerotinia homoeocarpa; 72 h, isolate LWC 27, radial growth after 72 h, mean of two assays
  EC50: 0.01 µg/mL (≈ 0.0226 µM)
Sclerotinia homoeocarpa; 72 h, isolate PST4, radial growth after 72 h, mean of two assays
  EC50: 0.01 µg/mL (≈ 0.0226 µM)
Sclerotinia homoeocarpa; read-out: mean EC50, mean of three isolates
  EC50: 0.01 µg/mL (≈ 0.0226 µM)
Anthracnose (C. cereale); Ningnanmycin 10WP 0.08 g/m^2, 7 d interval, Aug. 8, 2010
  Turf quality: 5
Anthracnose (C. cereale); Ningnanmycin 10WP 0.08 g/m^2, 7 d interval, Aug. 15, 2010
  Turf quality: 4
Anthracnose (C. cereale); Ningnanmycin 10WP 0.15 g/m^2, 7 d interval, Aug. 8, 2010
  Turf quality: 5
Anthracnose (C. cereale); Ningnanmycin 10WP 0.15 g/m^2, 7 d interval, Aug. 15, 2010
  Turf quality: 5
Anthracnose (C. cereale); Ningnanmycin 10WP 0.15 g/m^2, 10 d interval, Aug. 8, 2010
  Turf quality: 5
Anthracnose (C. cereale); Ningnanmycin 10WP 0.15 g/m^2, 10 d interval, Aug. 15, 2010
  Turf quality: 4
Anthracnose (C. cereale); Ningnanmycin 10WP 0.30 g/m^2, 10 d interval, Aug. 8, 2010
  Turf quality: 5
Anthracnose (C. cereale); Ningnanmycin 10WP 0.30 g/m^2, 10 d interval, Aug. 15, 2010
  Turf quality: 4
Anthracnose (C. cereale); Ningnanmycin 10WP 0.30 g/m^2, 14 d interval, Aug. 8, 2010
  Turf quality: 4
Anthracnose (C. cereale); Ningnanmycin 10WP 0.30 g/m^2, 14 d interval, Aug. 15, 2010
  Turf quality: 4
Anthracnose (C. cereale); 0.15 g/m^2, 7-day interval
  anthracnose control (in words): satisfactory level of control
Anthracnose (C. cereale); 0.15 g/m^2, 14-day interval
  anthracnose control (in words): lowest suppression of anthracnose but still provided significant suppression compared to the untreated
Anthracnose (C. cereale); 0.30 g/m^2, 7-day interval
  anthracnose control (in words): highest level of anthracnose control
Anthracnose (C. cereale); 0.30 g/m^2, 14-day interval
  anthracnose control (in words): lowest suppression of anthracnose but still provided significant suppression compared to the untreated
Anthracnose (C. cereale); Ningnanmycin 10WP 0.08 g/m^2, 7 d interval, Aug. 1, 2011
  Anthracnose severity (%): 16%
Anthracnose (C. cereale); Ningnanmycin 10WP 0.08 g/m^2, 7 d interval, Aug. 8, 2011
  Anthracnose severity (%): 4%
Anthracnose (C. cereale); Ningnanmycin 10WP 0.08 g/m^2, 7 d interval, Aug. 15, 2011
  Anthracnose severity (%): 15%
Anthracnose (C. cereale); Ningnanmycin 10WP 0.08 g/m^2, 7 d interval, Jul. 25, 2011
  Anthracnose severity (%): 20%
Anthracnose (C. cereale); Ningnanmycin 10WP 0.15 g/m^2, 7 d interval, Aug. 1, 2011
  Anthracnose severity (%): 9%
Anthracnose (C. cereale); Ningnanmycin 10WP 0.15 g/m^2, 7 d interval, Aug. 8, 2011
  Anthracnose severity (%): 3%
Anthracnose (C. cereale); Ningnanmycin 10WP 0.15 g/m^2, 7 d interval, Aug. 15, 2011
  Anthracnose severity (%): 9%
Anthracnose (C. cereale); Ningnanmycin 10WP 0.15 g/m^2, 7 d interval, Jul. 25, 2011
  Anthracnose severity (%): 17%
Anthracnose (C. cereale); Ningnanmycin 10WP 0.15 g/m^2, 10 d interval, Aug. 1, 2011
  Anthracnose severity (%): 18%
Anthracnose (C. cereale); Ningnanmycin 10WP 0.15 g/m^2, 10 d interval, Aug. 8, 2011
  Anthracnose severity (%): 8%
Anthracnose (C. cereale); Ningnanmycin 10WP 0.15 g/m^2, 10 d interval, Aug. 15, 2011
  Anthracnose severity (%): 17%
Anthracnose (C. cereale); Ningnanmycin 10WP 0.15 g/m^2, 10 d interval, Jul. 25, 2011
  Anthracnose severity (%): 21%
Anthracnose (C. cereale); Ningnanmycin 10WP 0.30 g/m^2, 10 d interval, Aug. 1, 2011
  Anthracnose severity (%): 20%
Anthracnose (C. cereale); Ningnanmycin 10WP 0.30 g/m^2, 10 d interval, Aug. 8, 2011
  Anthracnose severity (%): 3%
Anthracnose (C. cereale); Ningnanmycin 10WP 0.30 g/m^2, 10 d interval, Aug. 15, 2011
  Anthracnose severity (%): 15%
Anthracnose (C. cereale); Ningnanmycin 10WP 0.30 g/m^2, 10 d interval, Jul. 25, 2011
  Anthracnose severity (%): 16%
Anthracnose (C. cereale); Ningnanmycin 10WP 0.30 g/m^2, 14 d interval, Aug. 1, 2011
  Anthracnose severity (%): 14%
Anthracnose (C. cereale); Ningnanmycin 10WP 0.30 g/m^2, 14 d interval, Aug. 8, 2011
  Anthracnose severity (%): 6%
Anthracnose (C. cereale); Ningnanmycin 10WP 0.30 g/m^2, 14 d interval, Aug. 15, 2011
  Anthracnose severity (%): 13%
Anthracnose (C. cereale); Ningnanmycin 10WP 0.30 g/m^2, 14 d interval, Jul. 25, 2011
  Anthracnose severity (%): 20%
Xanthomonas pruni
  in vitro activity: did not show any in vitro activity
X. translucent; ningnanmycin at 100 ug/ml, preliminary study
  in vitro activity: did not show any in vitro activity
X. translucent; ningnanmycin at 100 ppm
  activity against strains infecting turfgrass: not been able to detect any activity
Pantoea ananatis
  in vitro activity: did not show any in vitro activity
Acidovorax aveane
  in vitro activity: did not show any in vitro activity
P. aphanidermatum; concentration not given
  in vitro activity: no in vitro activity
P. aphanidermatum; ningnanmycin at 100 ppm
  activity against strains infecting turfgrass: not been able to detect any activity
[1]
  in vitro activity: showed in vitro activity
[2]
  efficacy against brown patch: little to no efficacy
[3]
  in vitro activity: demonstrated in vitro activity
[4]
  in vitro activity: demonstrated in vitro activity
[5]
  in vitro activity: demonstrated in vitro activity
Creeping bentgrass
  plant growth regulator effects: no plant growth regulator effects were observed
Fish
  Fish LC50 (96 h): >1,000 mg/L
Honey bee
  Non-mammals, honey bee: 200 μg/bee
mammals
  carcinogenicity, reproductive toxicity, developmental effects: no carcinogenicity, reproductive toxicity, or developmental effects have been observed
  toxicity to mammals: very low toxicity
earthworms
  adverse effects in non-target organisms: no adverse effects were observed
Rat [6]; female
  Acute toxicity Oral LD50: 12,100 mg/kg (female)
Rat [6]; male
  Acute toxicity Oral LD50: 6,810 mg/kg (male)
Rat [7]
  Acute toxicity Dermal LD50: >2,000 mg/Kg mg/kg
Rabbit [8]
  Irritation to eye: no
Rabbit [9]
  Irritation to skin: no
Guinea pig
  Sensitization: no
Green algae
  Aquatic plants EC50: 12.0 mg/L (72 h)
